Laboratory results: patent US6482429B1, “Stable powder inhalation dosage formulation” (Boehringer Ingelheim Pharmaceuticals, Inc., priority 2001, dated 2002)

Experiments:
[1] = Relative sintering rates under high relative humidity; format: physicochemical; details: about 23° C., about one day of exposure, compared with lactose
Protocol: Two experiments were carried out, one at about 85% relative humidity and another at about 95% relative humidity. The experiments ran over several days, but the largest increment occurs fairly early. Both experiments were carried out at room temperature (about 23° C.). […] Sintering of cellobiose is slower. […].

[2] = Particle size distribution measured using the Aerosizer with Pulse Jet Disperser; format: physicochemical; details: average of three measurements
Description: The Pulse Jet Disperser device (Amherst Processing Instruments) was used for powder dispersion. Three measurements were made for each sample and the results were averaged.

SMILES: O=C[C@H](O)[C@@H](O)[C@H](O[C@@H]1O[C@H](CO)[C@@H](O)[C@H](O)[C@H]1O)[C@H](O)CO [Cellobiose, cellobiose]
- Relative sintering rate (difference in number fraction Δf versus particle diameter) ([1]; approximately 85% relative humidity): slower
- Relative sintering rate (difference in number fraction Δf versus particle diameter) ([1]; approximately 93% relative humidity): slower
- Mean Particle Size [2]: 2.032 μm

SMILES: O.OC[C@H]1O[C@@H](O[C@H]2[C@H](O)[C@@H](O)C(O)O[C@@H]2CO)[C@H](O)[C@@H](O)[C@H]1O (stereo partly shown) [Lactose, lactose monohydrate, reference compound]
- Mean Particle Size [2]: 2.044 μm
